Our source for the Activity values is ChEMBL document CHEMBL2073958, “Active transport of imatinib into and out of cells: implications for drug resistance” (Blood, 2004).

The data set has as its target ATP-dependent translocase ABCB1 (Homo sapiens, UniProt P08183). Kind of data set: TP_TRANSPORTER: transepithelial transport in MDR1-transfected MDCKII cells. It counts as functional, cell-based. The conditions noted are these: dog, mdck-ii.

ATP-dependent translocase ABCB1, sequence (P08183 whole entry): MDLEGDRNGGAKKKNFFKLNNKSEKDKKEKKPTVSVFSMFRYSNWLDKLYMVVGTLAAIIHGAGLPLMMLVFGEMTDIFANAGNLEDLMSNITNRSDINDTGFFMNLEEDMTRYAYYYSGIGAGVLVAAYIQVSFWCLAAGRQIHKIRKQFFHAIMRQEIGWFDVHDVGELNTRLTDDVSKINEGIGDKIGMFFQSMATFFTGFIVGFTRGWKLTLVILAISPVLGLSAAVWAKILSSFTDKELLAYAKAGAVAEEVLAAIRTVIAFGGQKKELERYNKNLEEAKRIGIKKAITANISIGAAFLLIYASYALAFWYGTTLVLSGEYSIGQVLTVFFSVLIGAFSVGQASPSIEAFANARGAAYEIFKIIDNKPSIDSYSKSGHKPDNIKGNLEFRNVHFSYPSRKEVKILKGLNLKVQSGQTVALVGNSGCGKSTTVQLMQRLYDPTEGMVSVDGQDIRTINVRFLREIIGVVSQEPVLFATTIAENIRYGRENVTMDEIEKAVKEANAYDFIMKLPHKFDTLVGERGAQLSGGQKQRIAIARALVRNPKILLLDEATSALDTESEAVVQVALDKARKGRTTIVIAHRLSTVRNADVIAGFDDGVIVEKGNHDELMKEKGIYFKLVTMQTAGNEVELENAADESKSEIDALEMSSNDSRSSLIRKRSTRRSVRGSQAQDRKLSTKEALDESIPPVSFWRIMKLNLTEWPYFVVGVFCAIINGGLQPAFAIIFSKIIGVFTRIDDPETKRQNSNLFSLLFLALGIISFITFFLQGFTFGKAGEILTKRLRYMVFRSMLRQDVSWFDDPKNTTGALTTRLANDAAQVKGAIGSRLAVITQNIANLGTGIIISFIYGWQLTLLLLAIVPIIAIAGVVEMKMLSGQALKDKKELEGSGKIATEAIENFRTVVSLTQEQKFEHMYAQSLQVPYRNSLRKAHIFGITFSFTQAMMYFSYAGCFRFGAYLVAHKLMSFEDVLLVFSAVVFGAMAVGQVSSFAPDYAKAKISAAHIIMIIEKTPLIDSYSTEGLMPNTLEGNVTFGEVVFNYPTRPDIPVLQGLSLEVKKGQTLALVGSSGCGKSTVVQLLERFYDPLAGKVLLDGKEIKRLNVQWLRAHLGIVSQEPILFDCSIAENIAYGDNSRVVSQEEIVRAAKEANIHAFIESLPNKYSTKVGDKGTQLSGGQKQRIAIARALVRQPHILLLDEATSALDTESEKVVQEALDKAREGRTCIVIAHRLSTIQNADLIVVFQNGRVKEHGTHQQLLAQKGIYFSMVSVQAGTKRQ

As for `Cc1ccc(NC(=O)c2ccc(CN3CCN(C)CC3)cc2)cc1Nc1nccc(-c2cccnc2)n1` [IMATINIB], the Activity entry was “substrate [+]”.
